Measurements reported in patent US9078909B2, “Tertiary amines, medicaments containing said amines, use thereof and processes for the preparation thereof” (Boehringer Ingelheim International GmbH, priority 2012, dated 2015).

Biological target: T1, epithelial sodium channel (ENaC) (Mus musculus, UniProt Q61180+Q9WU38+Q9WU39)
T1 construct: Mouse kidney M-1 cells were cultivated in DMEM; endogenous in cells; host or cells: mouse kidney M-1 cells (cortical collecting duct line), dexamethasone-treated, on transwell filters
T1 sequence (Q61180 1-699): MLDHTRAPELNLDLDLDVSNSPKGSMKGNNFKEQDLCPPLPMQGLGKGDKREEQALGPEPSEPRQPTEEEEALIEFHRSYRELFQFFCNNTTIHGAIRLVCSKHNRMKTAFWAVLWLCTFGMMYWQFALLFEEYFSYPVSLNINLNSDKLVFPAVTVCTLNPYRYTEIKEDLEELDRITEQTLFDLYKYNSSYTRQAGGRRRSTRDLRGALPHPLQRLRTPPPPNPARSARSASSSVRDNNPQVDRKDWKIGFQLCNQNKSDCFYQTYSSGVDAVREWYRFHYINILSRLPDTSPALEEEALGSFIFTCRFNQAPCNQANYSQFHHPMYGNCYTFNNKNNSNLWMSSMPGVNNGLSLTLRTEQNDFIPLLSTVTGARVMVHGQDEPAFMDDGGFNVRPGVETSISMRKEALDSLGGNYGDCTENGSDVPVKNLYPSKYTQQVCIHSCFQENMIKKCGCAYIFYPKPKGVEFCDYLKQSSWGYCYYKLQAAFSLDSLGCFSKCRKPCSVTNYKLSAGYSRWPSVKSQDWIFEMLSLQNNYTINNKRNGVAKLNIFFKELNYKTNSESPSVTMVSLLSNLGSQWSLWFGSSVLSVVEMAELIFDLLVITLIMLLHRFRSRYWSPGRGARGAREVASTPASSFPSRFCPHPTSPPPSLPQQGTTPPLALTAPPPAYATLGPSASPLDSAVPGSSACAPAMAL
T1 sequence (Q9WU38 1-638): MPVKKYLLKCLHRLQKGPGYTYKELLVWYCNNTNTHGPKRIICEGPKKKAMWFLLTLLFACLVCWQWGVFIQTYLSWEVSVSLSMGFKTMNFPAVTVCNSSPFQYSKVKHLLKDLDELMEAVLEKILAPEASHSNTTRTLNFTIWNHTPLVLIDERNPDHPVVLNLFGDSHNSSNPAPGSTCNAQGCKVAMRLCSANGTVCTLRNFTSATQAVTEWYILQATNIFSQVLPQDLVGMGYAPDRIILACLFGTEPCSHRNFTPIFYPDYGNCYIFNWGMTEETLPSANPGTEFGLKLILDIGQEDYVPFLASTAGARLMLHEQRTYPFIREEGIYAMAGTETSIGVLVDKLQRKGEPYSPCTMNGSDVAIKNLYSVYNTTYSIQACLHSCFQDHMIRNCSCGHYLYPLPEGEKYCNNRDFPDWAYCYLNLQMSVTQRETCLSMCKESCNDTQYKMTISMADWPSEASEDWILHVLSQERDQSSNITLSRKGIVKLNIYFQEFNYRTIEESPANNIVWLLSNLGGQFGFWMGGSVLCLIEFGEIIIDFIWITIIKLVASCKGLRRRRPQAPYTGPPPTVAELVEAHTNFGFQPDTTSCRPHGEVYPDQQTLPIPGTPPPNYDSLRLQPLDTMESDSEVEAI
T1 sequence (Q9WU39 1-655): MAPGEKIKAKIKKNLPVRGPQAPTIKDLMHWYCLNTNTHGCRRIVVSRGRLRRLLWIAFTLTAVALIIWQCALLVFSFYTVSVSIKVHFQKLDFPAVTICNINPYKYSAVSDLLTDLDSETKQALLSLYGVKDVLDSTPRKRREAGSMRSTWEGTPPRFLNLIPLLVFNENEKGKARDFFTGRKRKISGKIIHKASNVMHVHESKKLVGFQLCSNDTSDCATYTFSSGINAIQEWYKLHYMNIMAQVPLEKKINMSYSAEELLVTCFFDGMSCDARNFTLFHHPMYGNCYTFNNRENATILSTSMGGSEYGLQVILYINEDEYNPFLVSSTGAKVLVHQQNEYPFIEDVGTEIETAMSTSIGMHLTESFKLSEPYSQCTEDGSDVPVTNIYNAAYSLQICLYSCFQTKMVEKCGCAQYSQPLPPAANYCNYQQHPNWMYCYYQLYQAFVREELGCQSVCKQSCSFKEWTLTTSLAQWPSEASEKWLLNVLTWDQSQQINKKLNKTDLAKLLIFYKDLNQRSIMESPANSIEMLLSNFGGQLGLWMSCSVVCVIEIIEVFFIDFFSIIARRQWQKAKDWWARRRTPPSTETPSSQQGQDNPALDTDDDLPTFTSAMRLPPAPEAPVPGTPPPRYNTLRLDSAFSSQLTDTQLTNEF
Assay: Ussing Chamber assay: inhibition of amiloride sensitive short circuit current (I_sc) in M-1 cells
Assay type: cell-based
Settings: Ussing Chamber; mouse kidney M-1 cells on transwell filters; short circuit current; compound added to apical solution; 37° C.; read-out: IC50
Experimental: Ussing Chamber: Mouse kidney M-1 cells were cultivated in DMEM containing 5% FCS and 5 μM dexamethasone for 10 to 12 days on polyester transwell filters. Filters were inserted into a teflon-coated well-plate which fit into the in-house ussing chamber system. Prior to measurement the medium of M-1 cells was replaced with Caco-2 transport buffer (Invitrogen, Germany). During measurements, the Ussing chamber temperature was kept at 37° C. Short circuit currents (I_sc) were measured in the voltage-clamp mode using an in-house built amplifier (Boehringer Ingelheim, Biberach) with the software package Lab View for data acquisition and analysis. The transepithelial electrical resistance (TEER) was determined by the application of voltage steps of ±5 mV every 5 sec. Compounds were administered at a final concentration of 3 μM or at increasing concentrations (e.g. 1-3-10 μM) to the apical solution. At the end of each experiment the amiloride sensitive I_SC was measured by adding 3 μM amiloride to the apical compartment. Results are expressed as inhibition in percent of the amiloride effect or as IC50.
With the example compounds given above, the following IC50 values were determined in the Ussing Chamber assay: […]

Row | SMILES | IC50
1 | CN(C)CCN(c1ccc(NC(=O)CN2CCC(NC(N)=NC(=O)c3nc(Cl)c(N)nc3N)CC2)cc1)S(C)(=O)=O [Example 1.14] | 1 nM
2 | NC(=NC(=O)c1nc(Cl)c(N)nc1N)NC1CCN(CC(=O)Nc2cccc(CN3CCOCC3)c2)CC1 [Example 1.9] | 1 nM
3 | COC(=O)c1cccc(NC(=O)CN2CCC(NC(N)=NC(=O)c3nc(Cl)c(N)nc3N)CC2)c1 [Example 1.19] | 3 nM
4 | NC(=O)c1ccc(NC(=O)CN2CCC(NC(N)=NC(=O)c3nc(Cl)c(N)nc3N)CC2)cc1 [Example 1.2] | 2 nM
5 | COC(=O)c1ccccc1NC(=O)CN1CCC(NC(N)=NC(=O)c2nc(Cl)c(N)nc2N)CC1 [Example 1.18] | 0.3 nM
6 | COC(=O)Cn1ccc(NC(=O)CN2CCC(NC(N)=NC(=O)c3nc(Cl)c(N)nc3N)CC2)cc1=O [Example 1.16] | 18 nM
7 | NC(=NC(=O)c1nc(Cl)c(N)nc1N)NC1CCN(CC(=O)Nc2ccc(S(=O)(=O)O)cc2)CC1 [Example 1.13] | 23 nM
8 | CN(C)CC(=O)N(C)c1ccc(NC(=O)CN2CCC(NC(N)=NC(=O)c3nc(Cl)c(N)nc3N)CC2)cc1 [Example 1.7] | 1 nM
9 | CS(=O)(=O)c1ccc(CNC(=O)CN2CCC(NC(N)=NC(=O)c3nc(Cl)c(N)nc3N)CC2)cc1 [Example 1.25] | 3 nM
10 | N=C(NC(=O)c1nc(Cl)c(N)nc1N)NC1CCN(CC(=O)Nc2ccccc2)CC1 [Example 1.1] | 2 nM
11 | Cc1ccc(CNC(=O)CN2CCC(NC(N)=NC(=O)c3nc(Cl)c(N)nc3N)CC2)o1 [Example 1.27] | 4 nM
12 | CN(C(=O)CN1CCC(NC(N)=NC(=O)c2nc(Cl)c(N)nc2N)CC1)c1ccccc1 [Example 1.22] | 22 nM
13 | NC(=NC(=O)c1nc(Cl)c(N)nc1N)NC1CCN(CC(=O)NCc2ccc(S(N)(=O)=O)cc2)CC1 [Example 1.26] | 3 nM

Further lines, results first:

Row | IC50 | SMILES
14 | 3 nM | CC(C)NC(=O)CN1CCC(NC(N)=NC(=O)c2nc(Cl)c(N)nc2N)CC1 [Example 6.7]
15 | 1 nM | NC(=NC(=O)c1nc(Cl)c(N)nc1N)NC1CCN(CC(=O)NCc2ccccc2SC(F)(F)F)CC1 [Example 6.3]
16 | 55 nM | COCCOCCOCCOCCN1CCC(NC(N)=NC(=O)c2nc(Cl)c(N)nc2N)CC1 [Example 4.12]
17 | 1 nM | CCCCNC(=O)CN1CCC(NC(N)=NC(=O)c2nc(Cl)c(N)nc2N)CC1 [Example 6.6]
18 | 6 nM | COC(=O)c1cccc(CNC(=O)CN2CCC(NC(N)=NC(=O)c3nc(Cl)c(N)nc3N)CC2)c1 [Example 6.5]
19 | 27 nM | COC(=O)CN1CCC(NC(N)=NC(=O)c2nc(Cl)c(N)nc2N)CC1 [Example 4.11]
20 | 19 nM | COC(=O)CCN1CCC(NC(=N)NC(=O)c2nc(Cl)c(N)nc2N)CC1 [Example 4.1]
21 | 10 nM | CCSCCN1CCC(NC(N)=NC(=O)c2nc(Cl)c(N)nc2N)CC1 [Example 4.2]
22 | 47 nM | NC(=NC(=O)c1nc(Cl)c(N)nc1N)NC1CCN(CC(=O)Nc2ccccc2C(=O)O)CC1 [Example 2.3]
23 | 3 nM | CC(C)(C)OC(=O)CN1CCC(NC(N)=NC(=O)c2nc(Cl)c(N)nc2N)CC1 [Example 4.18]
24 | 9 nM | CCOC(=O)C(C(=O)OCC)N1CCC(NC(N)=NC(=O)c2nc(Cl)c(N)nc2N)CC1 [Example 4.19]
25 | 147 nM | NC(=NC(=O)c1nc(Cl)c(N)nc1N)NC1CCN(CCCS(=O)(=O)O)CC1 [Example 4.23]
26 | 17 nM | CC(C)(C)OC(=O)C1CCN(C(=O)CN2CCC(NC(N)=NC(=O)c3nc(Cl)c(N)nc3N)CC2)CC1 [Example 4.24]
27 | 176 nM | NC(=NC(=O)c1nc(Cl)c(N)nc1N)NC1CCN(CC(=O)N2CCC(C(=O)O)CC2)CC1 [Example 5.4]
